Data from patent US20240301408A1, “MICRORNA 195 COMPOSITIONS AND METHODS FOR TREATING COGNITIVE IMPAIRMENT” (UNITED STATES GOVERNMENT AS REPRESENTED BY THE DEPARTMENT …, priority 2021, published 2024).
“Also recorded” adds a separate entry of the source.

How the values were obtained:
exosomal miR-195-5p = experiment: brain and serum exosomal miR-195-5p levels in mice treated with synj1-lowering agents; type: in vivo, mouse; details: for serum exosomal miR-195 levels: treated 5×FAD mice versus vehicle controls, N=6-8/group; for brain exosomal miR-195-5p levels: treated mice versus controls
Procedure: As disclosed herein, a study was performed to examine exosomal fractions of brain and serum samples of synj1 haploinsufficiency mice (ApoE3 synj1^+/− and ApoE4 synj1^+/−) as well as of mice treated with synj1-lowering agents (SynaptoCpd #9 and Cpd #6). Exosomes were purified using sucrose gradient fractionation methods and the purity of exosome fractions were evaluated by western blot analysis of exosomal protein markers such as ALIX, and uptake studies of fluorescence tagged exosomes by human iPSC-derived astrocyte cultures. […] In addition, serum exosomal miR-195-5p levels were positively correlated with brain exosomal miR-195-5p levels and cognitive performance (NOR preference index and Y maze SAP scores), and reversely correlated with brain insoluble pTau and synj1 protein levels in drug-treated mouse cohorts (FIG. 19C).

ApoE receptors = experiment: miR-195 levels in ApoE-/- neurons treated with ApoE3-CM or ApoE4-CM in the presence of RAP; type: cell-based, mouse; details: N=3/group
Procedure: Mouse Neuronal and human iPSC culture. Primary cortical neurons were cultured (Zhu L et al., Proc Natl Acad Sci USA 2015, and Zhu L et al., J Biol Chem 2013) before being fixed and stained for confocal microscopy analysis (Zeiss LSM) (Berg I et al., Nat Protoc 2010). In some conditions, bovine serum albumin (BSA) or receptor-associated protein (RAP) was included in the cultured media (N=3/group). Alternatively, cultured neurons were transfected with adeno-associated virus 2 (AAV2)-containing miR-195-5p or miR-374 or scramble controls for 5 days before subjected to analysis. […]
Statistical analysis. […] Levels of miR-195-5p and miR-374 were normalized to U6 and RNU6B (internal controls) while synj1 mRNA normalized to GAPDH and 18s, and then expressed as Log2fold of changes when compared to controls. Levels of synj1, dyn1, pTau, Tau, and holoAPP were normalized to β-actin levels and expressed as a percentage of the control. Absolute Aβ42, Aβ40, pTau, Tau, and ApoE concentrations were quantitatively determined by ELISA and expressed as a percentage of the control. […] Pearson correlation coefficients were calculated to determine the linear relationship between the two variables. […]

Compound | serum exosomal miR-195 levels (exosomal miR-195-5p) | brain exosomal miR-195-5p levels (exosomal miR-195-5p) | miR-195 levels (ApoE receptors; ApoE4 CM+RAP (ApoE4 CM+BSA −3.193±0.144)) | miR-195 levels (ApoE receptors; RAP in the presence of ApoE3-CM)
COCCOC(=O)C1=C(C)NC(C)=C(C(=O)OC(C)C)C1c1ccc(C(F)(F)F)cc1 (stereo not drawn) [Cpd #6] | much higher; also recorded: significantly elevated | much higher | – | –
COCCOC(=O)C1=C(C)NC(C)=C(C(=O)OC(C)C)C1c1ccc(C(C)(C)C)cc1 (stereo not drawn) [Cpd #9] | much higher; also recorded: significantly elevated | much higher | – | –
RAP: ApoE-receptor associated protein, an inhibitor of ApoE receptors | – | – | −2.678±0.054 log2FC | −1.648±0.125 log2FC
